Values quoted from earlier work, collected in US6521209B1, “Bifunctional detection agents” (California Institute of Technology, priority 1996, dated 2003).

Details: for stability constant (K), formation constant, logK: Gd(III) complex

| stability constant (K), formation constant, logK | dissociation kinetics (at physiological pH) | Compound |
| --- | --- | --- |
| 22.4 | – | O=C([O-])CN(CCN(CC(=O)[O-])CC(=O)O)CCN(CC(=O)[O-])CC(=O)O.[Gd+3] [Gd(DTPA)] |
| 28.5 | very slow dissociation kinetics | O=C([O-])CN1CCN(CC(=O)[O-])CCN(CC(=O)O)CCN(CC(=O)[O-])CC1.[Gd+3] [Gd-DOTA] |
